Literature values in US20140308215A1, “ANTIPERSPIRANT COMPOSITIONS AND METHOD FOR REDUCING PERSPIRATION” (Conopco, Inc., d/b/a Unilever, priority 2011, published 2014).

settings: Hildebrand Solubility Parameter of the liquid carrier

With CCCCCCCCCCCCCCCC [Hexadecane] as the compound, how does the HSP read?
The HSP was 16.36 (MPa)^0.5.

With CCCCCCCCCCCCCC(=O)OC(C)C [Isopropyl myristate] as the compound, how does the HSP read?
The HSP was 16.40 (MPa)^0.5.

Which HSP does the source give for CCCCCCCCCCC(CO)CCCCCCCC (stereo not shown) [Octyl dodecanol] here?
Its HSP is 18.25 (MPa)^0.5.

For CCCCC(CC)C(=O)OCC(COC(=O)C(CC)CCCC)OC(=O)C(CC)CCCC (stereo not shown) [Triethylhexanoin], which HSP is on record?
The HSP was 18.02 (MPa)^0.5.
